Values joined by “and” are separate entries in the source; they are usually repeats but may differ in a detail not shown here. Equal entries are not always repeated. Where two headings read alike, the source gives them in different places.
Experiments:
PRXF DU-145 = assay: CellTiter-Blue 2D monolayer assay (Example 1), prostate; format: cell-based, human; conditions: for Test/Control (%): 72 h
Procedure: (§1) Compound 85 was assessed in 10 human tumor cell lines (see Table 3) for anti-cancer activity in vitro using a CellTiter-Blue® based 2D monolayer assay.
(§2) CellTiter-Blue® Cell Viability Assay: Tumor cells were grown at 37° C. in a humidified atmosphere with 5% CO2 in RPMI medium, supplemented with 10% (v/v) fetal calf serum and 50 μg/ml gentamicin (140 μl/well). Cultures were incubated at 37° C. and 5% CO2 in a humidified atmosphere. After 24 hours, 10 μl of Compound 85 was added, and left on the cells for another 72 hours (incubation period). Compound 85 was tested at 5 concentrations (0.003 μM, 0.03 μM, 0.3 μM, 3 μM, and 30 μM) and serially diluted in DMSO, mixed with cell culture medium, and added to the assay plates by using a Tecan Freedom EVO 200 robotic platform. The DMSO concentration was kept constant at 0.3% yip across the assay plate. Every 96 well plate included six DMSO-treated control wells and Compound 85-treated wells in duplicate at 5 concentrations. Viability of cells was quantified using the CellTiter-Blue® cell viability assay (Promega G8081). After incubation of cells, the CellTiter-Blue® reagent was brought to ambient temperature. Next, 20 μl of CellTiter-Blue® reagent were added to each well. After incubation tier up to 4 hours, fluorescence (FU) was measured using the EnSpire® multimode plate reader (Perkin Elmer) ([…]).
(§3) Data Evaluation: Sigmoidal concentration-response curves were fitted to the data points (test-versus-control; T/C values) obtained for each tumor model using 4 parameter non-linear curve fit (Charles River DRS Datawarehouse Software). Drug effects are expressed in terms of the percentage of the fluorescence signal, obtained by comparison of the mean signal in the treated wells with the mean signal of the untreated controls (T/C-value [%]) (Table 4). IC50 and IC70 values were reported as relative and absolute IC50 and IC70 values (Table 5). The absolute IC50 and IC70 values reflect the concentration of Compound 85 that achieves T/C=50% and T/C=30%, respectively. The relative IC50 value is the concentration of Compound 85 that gives a response half way between the top and bottom plateau of the sigmoidal concentration-response curve (inflection point of the curve).

PRXF PC-3 = assay: as above; format: cell-based, human; conditions: for Test/Control (%): 72 h
Procedure: as §1, §2, §3

PAXF HUP-T3 = assay: CellTiter-Blue 2D monolayer assay (Example 1), pancreas; format: cell-based, human; conditions: for Test/Control (%): 72 h
Procedure: as §1, §2, §3

[1] = test system: 10 human tumor cell lines; assay: CellTiter-Blue 2D monolayer assay (Example 1), whole panel; format: cell-based
Procedure: as §1, §2, §3

SXFO 678 = assay: CellTiter-Blue Cell Viability Assay (Example 2), osteosarcoma; format: cell-based, human; conditions: for T/C %: 72 h
Text: (§4) The CellTiter-Blue® Cell Viability Assay was used to assess the viability of cells from various cancer cell lines, in the presence or absence of Compound 85 (at different concentrations). This assay provides a homogeneous, fluorometric method for estimating the number of viable cells present in multi-well plates. Viable cells retain the ability to reduce resazurin to resorufin, which is highly fluorescent. […] The fluorescence produced is proportional to the number of viable cells. There is a linear relationship between cell number and fluorescence.
(§5) Cancer cells (see Table 6) were harvested from exponential phase cultures, counted and plated in 96 well flat-bottom microtiter plates, at a cell density 6,000-20,000 cells/well, depending on the cell line's growth rate. The culture medium was supplemented with 10% (v/v) foetal calf serum and 50 μg/mL gentamicin (140 μL/well). Cultures were incubated at 37° C. and 5% CO2 in a humidified atmosphere.
(§6) Compound 85 was serially diluted in DMSO, and five Compound 85 concentrations in half-log increments were used: 0.03 μM, 0.09 μM, 0.30 μM, 1.0 μM, and 3.0 μM. After 24 h, 10 μL of Compound 85 (dissolved in DMSO) or control (DMSO) medium were added, in duplicates, and left on the cells for another 72 h. Compound 85 solutions were added to the assay plates using a Tecan Freedom EVO 200 robotic platform. The DMSO concentration was kept constant at 0.3% v/v across the assay plate.
(§7) After incubation of up to 72 hours, fluorescence (FU) was measured using the EnSpire® multimode plate reader (Perkin Elmer) (excitation λ=570 nm, emission λ=600 nm).
(§8) Cancer cell lines used: Compound 85's anti-cancer effect was tested in 20 human cancer-cell lines representing nine cancer types (Table 6).
(§9) The percentage of viable cells in the presence of Compound 85 (Test condition, T), at different concentrations, are presented in Table 7 and expressed as a percentage of the number of viable cells in the presence of DMSO without Compound 85 (Control condition, C).
(§10) The relative IC50 is determined as the Compound 85 concentration giving a response halfway between the maximum cell viability signal (i.e., a 100% cell viability, no Compound 85 response) and the minimal viability signal (i.e. maximum cell viability inhibition achieved by Compound 85), in a sigmoidal concentration-effect curve.
(§11) The absolute IC50 is determined as the concentration that is associated with a T/C ratio of 50%.

SXFO Saos-2 = assay: as above; format: cell-based, human; conditions: for T/C %: 72 h
Text: as §4, §5, §6, §7, §8, §9, §10, §11

[2] = geometric mean over 10 cell lines

CC(C)(O)Cn1nc(-c2ccccc2)c2c(Cl)c(-c3ccccc3)nnc21 [Compound 85]
Rel. IC70 (PRXF DU-145): 1376 nM | Test/Control (%) (PRXF DU-145; 0.003 μM): 100% | Test/Control (%) (PRXF DU-145; 0.03 μM): 110% | Test/Control (%) (PRXF DU-145; 0.3 μM): 102% | Test/Control (%) (PRXF DU-145; 3 μM): 11% | Test/Control (%) (PRXF DU-145; 30 μM): 6% | Abs. IC70 (PRXF DU-145; T/C=30%): 1528 nM | IC50 (PRXF DU-145; T/C=50%, read-out: Abs. IC50): 1090 nM | Bot. (%) (PRXF DU-145; bottom plateau of curve): 6% | IC50 (PRXF DU-145; read-out: Rel. IC50): 1000 nM | Top (%) (PRXF DU-145; top plateau of curve): 105% | Rel. IC70 (PRXF PC-3): 1326 nM | Test/Control (%) (PRXF PC-3; 0.003 μM): 104% | Test/Control (%) (PRXF PC-3; 0.03 μM): 103% | Test/Control (%) (PRXF PC-3; 0.3 μM): 103% | Test/Control (%) (PRXF PC-3; 3 μM): 2% | Test/Control (%) (PRXF PC-3; 30 μM): 1% | Abs. IC70 (PRXF PC-3; T/C=30%): 1349 nM | IC50 (PRXF PC-3; T/C=50%, read-out: Abs. IC50): 1100 nM | Bot. (%) (PRXF PC-3; bottom plateau of curve): 1% | IC50 (PRXF PC-3; read-out: Rel. IC50): 1080 nM | Top (%) (PRXF PC-3; top plateau of curve): 103% | Rel. IC70 (PAXF HUP-T3): 1505 nM | Test/Control (%) (PAXF HUP-T3; 0.003 μM): 100% | Test/Control (%) (PAXF HUP-T3; 0.03 μM): 101% | Test/Control (%) (PAXF HUP-T3; 0.3 μM): 79% | Test/Control (%) (PAXF HUP-T3; 3 μM): 16% | Test/Control (%) (PAXF HUP-T3; 30 μM): 6% | Abs. IC70 (PAXF HUP-T3; T/C=30%): 1518 nM | IC50 (PAXF HUP-T3; T/C=50%, read-out: Abs. IC50): 794 nM | Bot. (%) (PAXF HUP-T3; bottom plateau of curve): 0% | IC50 (PAXF HUP-T3; read-out: Rel. IC50): 785 nM | Top (%) (PAXF HUP-T3; top plateau of curve): 101% | inhibition of the tumor cell growth ([1]; all cell lines of Table 3): concentration-dependent inhibition | Geometric mean Abs. IC70 [1, 2]: 1258 nM | Geometric mean Rel. IC70 [1, 2]: 1226 nM | IC50 ([1]; geometric mean over 10 cell lines, read-out: Geometric mean Abs. IC50): 950 nM and 948 nM | IC50 ([1]; geometric mean over 10 cell lines, read-out: Geometric mean Rel. IC50): 926 nM | Absolute IC70 (SXFO 678): 532 nM | Relative IC70 (SXFO 678): 531 nM | T/C % (SXFO 678; 0.03 μM): 101% | T/C % (SXFO 678; 0.095 μM): 97% | T/C % (SXFO 678; 0.3 μM): 91% | T/C % (SXFO 678; 0.95 μM): 2% | T/C % (SXFO 678; 3.0 μM): 1% | IC50 (SXFO 678; read-out: Absolute IC50): 458 nM | IC50 (SXFO 678; read-out: Relative IC50): 458 nM | Absolute IC70 (SXFO Saos-2): 747 nM | Relative IC70 (SXFO Saos-2): 750 nM | T/C % (SXFO Saos-2; 0.03 μM): 97% | T/C % (SXFO Saos-2; 0.095 μM): 93% | T/C % (SXFO Saos-2; 0.3 μM): 99% | T/C % (SXFO Saos-2; 0.95 μM): 1% | T/C % (SXFO Saos-2; 3.0 μM): 0% | IC50 (SXFO Saos-2; read-out: Absolute IC50): 709 nM | IC50 (SXFO Saos-2; read-out: Relative IC50): 712 nM
